Results on 92 compounds are retold here after a melting point compilation (Tetko et al.; mined from patent text by program, amines drawn as free bases though some values may be those of a salt).

The compound `Clc1c(Cl)c(Cl)c(CI)c(Cl)c1Cl` gave a melting point of 138 to 140 °C.

In the case of `COc1ccc2c(C(=O)Nc3ccc(F)c(C(F)(F)F)c3)nsc2c1`, the melting point turned out to be 157 °C.

`Cc1cc(F)cc([N+](=O)[O-])c1C#N` gave a melting point of 61 to 63 °C.

In turn, `O=c1c2ccc(/C=C/c3ccc(O)cc3)cc2cnn1-c1ccccn1` came in with a melting point of 272 °C.

Take `CNC1C(O)CC2C3CCc4cc(OC(=O)C(C)(C)C)ccc4C3CCC21C` (configuration not stated): the melting point lay within 196 to 199 °C.

In the case of `COc1cc(COc2cc3ncnc(Nc4ccc(Cl)cc4F)c3cc2OC)ccn1`, the melting point lay in the range of 202 to 204 °C.

Take `COc1ccc2sc(C3=C(C(C)(C)C)C(C)(C)CO3)cc2c1`: the melting point was in the range of 58 to 59 °C.

As to `Cc1cnc(Oc2cccc(C(F)(F)F)c2)c(C(=O)O)c1`, the melting point lay in the range of 173 to 175 °C.

The compound `OCCn1nccc1-c1ccc(Oc2ccc(F)cc2)cc1` showed a melting point of 71 to 72 °C.

`COc1ccc(C2CCc3cc(CC(=O)O)cc(Cl)c3N2)cc1` (configuration not stated) yielded a melting point of 140 to 141 °C.

Compound `CC(C)(C)C(O)Cn1ncn(-c2ccc(N3CCN(c4ccc(O[Si](C)(C)C(C)(C)C)cc4)CC3)cc2)c1=O` (configuration not stated) yielded a melting point of 196 °C.

With `CCCCCCCCCCC[C@H](CC(=O)N[C@@H](CO)CCCN)OCc1ccccc1`, the melting point is 47 to 48 °C.

`COc1cc(C=CC(=O)c2cc(OC)c(OC)c(OC)c2)cc(C(F)(F)F)c1O` yielded a melting point of 190 to 192 °C.

`O=C(NCc1ccc(Cl)cc1)c1cnc2ccc(-c3ccccc3)cc2c1O`: the melting point was 255 to 257 °C.

Consider `CN(C(=O)Nc1ccccc1)C1CCCCC1`, for which the melting point lay within 195 to 197 °C.

As for `CC(C)(C)OC(=O)n1[nH]c(=O)c2ccccc21`, the melting point was 145 °C.

`COC(=O)c1c(C(F)F)nc(C(F)(F)F)c(C(=O)OC)c1CC(C)C` showed a melting point of 36 to 37 °C.

`O=C(Nc1ccc2[nH]ncc2c1)c1ccccc1NCC1CCOCC1` registered a melting point of 174 °C.

Turning to `COc1cc(OC)nc(C2(O)OC(=O)c3c(Cl)ccc(Cl)c32)n1` (configuration not stated), the melting point fell in the range of 161 to 175 °C.

Regarding `CC(Oc1ccccc1[N+](=O)[O-])C(=O)NCCO[N+](=O)[O-]` (configuration not stated), the melting point is 65 to 67 °C.

`Cc1cc(C)n(C(=O)C(NS(=O)(=O)c2ccc(Cl)cc2)c2ccccc2)n1` (configuration not stated) registered a melting point of 160 °C.

For `Nc1ncnc2c1c(-c1ccc(Oc3ccccc3)cc1)cn2CC(=O)NCCOCCO`, the melting point lay in the range of 145 to 147 °C.

Compound `O=S1(=O)c2cccc3cccc(c23)N1CCN1CCC(CC2=Cc3ccccc3C2)CC1` came in with a melting point of 176 °C.

The compound `NS(=O)(=O)c1cccc(-c2cc(-c3nc(-c4ccc(F)cc4)cc(C(F)(F)F)n3)ccn2)c1` had a melting point of 240 °C.

Take `CCCCCCCCc1ccc(OC2=CC(=O)OC2O)cc1` (configuration not stated): the melting point lay in the range of 59 to 61 °C.

For `CCOc1ccc2nc(CCl)cn2c1`, the melting point was in the range of 95 to 96 °C.

The compound `CC(=CC(CNC(=O)c1cccnc1)=NO)C(C)[N+](=O)[O-]` (configuration not stated) registered a melting point of 137 to 139 °C.

The compound `COc1ccc(Cc2c[nH]c(=O)c3ccccc23)cn1` registered a melting point of 191 °C.

In turn, `CCOC(=O)c1sc(-n2ccc(OCCC3CC3)cc2=O)nc1C` registered a melting point of 188 to 190 °C.

Take `O=C(O)c1cccc(-c2nn(Cc3ccccc3)c3ccccc23)c1`: the melting point was 190 to 192 °C.

`O=Cc1cccc(-c2cccs2)n1` showed a melting point of 48 to 50 °C.

In the case of `O=c1oc(OCCBr)c(Cl)c2ccccc12`, the melting point fell in the range of 183 to 185 °C.

Turning to `O=C(CNC(=O)OCc1ccccc1)Nn1cccc1C(=O)c1ccccc1`, the melting point lay within 96 to 98 °C.

With `O=C(O)CCCC(=O)c1ccc(O)c(O)c1`, the melting point fell in the range of 210 to 215 °C.

`COc1ccc2cc(CC(N)=O)ccc2c1` returned a melting point of 234 to 236 °C.

`CCC(=O)SCC(CC(=O)c1ccc(Br)cc1)C(=O)O` (configuration not stated) registered a melting point of 122 to 123 °C.

For `COc1cc2ccccc2c(=O)c2cc(Cl)sc12`, the melting point was in the range of 190 to 194 °C.

For the compound `O=C(c1cccnc1)N1CCC(c2ccccc2[N+](=O)[O-])=N1`, the melting point is 123 to 125 °C.

Compound `CN1CCC(c2cccc3c2C[C@H](NC(=O)c2ccc(N4CCOCC4)cc2)CC3)CC1` returned a melting point of 196 to 198 °C.

As to `CC1(C)C(=O)Nc2cccc(O)c21`, the melting point lay in the range of 224 to 225 °C.

For `COC(=O)COC(=O)Cc1cc(Oc2ccc(C(F)(F)F)cc2Cl)ccc1[N+](=O)[O-]`, the melting point lay within 79.2 to 80.1 °C.

Compound `Cc1nc(N2CCCC(Cc3cccc(F)c3)C2=O)sc1C(=O)NCc1ccccc1` (configuration not stated) returned a melting point of 170 to 171 °C.

The compound `CN(C)Cc1cccc(-c2cc3c(=O)n(NS(C)(=O)=O)c(=O)[nH]c3cc2C(F)(F)F)c1` had a melting point of 346 to 348 °C.

`Fc1ccc2c(c1)Cc1cccnc1-2` came in with a melting point of 80 to 84 °C.

Compound `CN(CCCc1c(N)nc(N)[nH]c1=O)c1ccc(C(=O)N[C@@H](CCC(=O)O)C(=O)O)cc1` registered a melting point of 190 to 200 °C.

As for `CC(CCl)NC(=O)c1c(Cl)cccc1[Si](C)(C)C` (configuration not stated), the melting point lay within 150 to 151 °C.

On to `COc1ccc(Cl)cc1N1C(=O)CON(C)C1=S`, for which the melting point was in the range of 189 to 191 °C.

`COc1cc2nc(N3CCN(c4ccnc(Oc5ccccc5)n4)CC3)nc(N)c2cc1OC` yielded a melting point of 253 to 254 °C.

In the case of `CC(C)n1nc(-c2sc(C(=O)NN(C)C)nc2-c2ccc(F)cc2)ccc1=O`, the melting point lay in the range of 169 to 170 °C.

In turn, `COc1cc(Nc2c(C#N)cnc3cc4cc(OCCn5nccn5)c(OC)cc4cc23)c(Cl)cc1Cl` came in with a melting point of 285 to 287 °C.

Compound `Cc1cc(OC(F)(F)F)cc2sc(N)nc12` yielded a melting point of 162 °C.

With `COc1ccc(N2C(=O)[C@H](O)[C@@H]2c2ccccc2)cc1`, the melting point fell in the range of 211 to 212 °C.

In turn, `O=C(NC(=S)Nc1ccc2nsnc2c1Cl)c1ccccc1` showed a melting point of 220 to 222 °C.

The compound `OC1(CNc2ccnc3cc(Cl)ccc23)CCCCC1` yielded a melting point of 205 to 207 °C.

`CC(C)(C)OC(=O)N1CCN(c2cncc(Cl)n2)CC1` yielded a melting point of 108 °C.

`NC(=O)CC(=O)c1cn2c3c(cccc13)CCC2` had a melting point of 200 to 201 °C.

Compound `COC(=O)C1=C(C)NC(=O)N(C)C1c1cccc(N)c1` (configuration not stated) registered a melting point of 205 to 209 °C.

`CN1CS(=Nc2ccc3[nH]nnc3c2)c2ccccc21` (configuration not stated) came in with a melting point of 240 °C.

Regarding `COc1cc(-c2cccs2)cc(OC)c1C=O`, the melting point is 168 to 170 °C.

Consider `CC1(C)CCC(C)(C)c2cc(CCOc3ccc(C(=O)O)c(O)c3)ccc21`, for which the melting point was 210 to 212 °C.

The compound `CCOC(=O)C(=O)Nc1ccc(C#N)cc1` showed a melting point of 188 °C.

In turn, `COC(=O)CC1(c2c(C)c(OC)c(C)c(C)c2OC)C=CC2=NCOC2=C1` (configuration not stated) displayed a melting point of 68 to 69 °C.

Turning to `S=C(NCCCN1CCN(Cc2ccc(Cl)cc2)CC1)Nc1ccccc1`, the melting point lay within 155 to 156 °C.

For the compound `O=C(O)CCNc1ccc(C(=O)c2ccccc2)cc1[N+](=O)[O-]`, the melting point is 170 to 175 °C.

The compound `Nc1ncc2c(n1)CCC(=O)C2` had a melting point of 214 to 217 °C.

The compound `CCc1cn(C2CC(O)C(CNC(=O)C(C)Oc3ccc(Cl)cc3Cl)O2)c(=O)[nH]c1=O` (mixture of isomers) had a melting point of 240 to 243 °C.

On to `CC(=O)OCC(=O)NCc1ccc(-c2csc(N)n2)s1`, for which the melting point lay in the range of 149 to 150 °C.

As for `COc1cc2c(cc1F)C1(CO2)C(=O)N(Cc2ccccn2)c2ccccc21` (configuration not stated), the melting point lay in the range of 142 to 144 °C.

As to `Oc1cccc2c1c1ccccc1n2Cc1ccccc1`, the melting point lay within 119 to 122 °C.

With `O=C(O)Cn1cc(Br)cnc1=O`, the melting point was in the range of 183 to 185 °C.

For `N#Cc1cnc2c(sc3ccccc32)c1Oc1ccc(Cl)cc1F`, the melting point is 174 to 175 °C.

For the compound `CCc1ccc(C(=O)C2=C(O)C(=O)N(c3ccc(C)nn3)C2c2ccc(OC(F)(F)F)cc2)cc1` (configuration not stated), the melting point is 263 to 267 °C.

For `CCC1(C)OC(c2ccc(S(N)(=O)=O)cc2)=C(c2ccc(C(C)=O)cc2)C1=O` (configuration not stated), the melting point is 154 to 155 °C.

The compound `Cc1c(CC(C)(C)C(=O)O)n(Cc2ccc(Cl)cc2)c2ccc(OCc3ccc4ccccc4n3)cc12` showed a melting point of 215 to 217 °C.

In the case of `C#CCN1CCCc2ccc(OC(=O)NCCCCCCC)cc21`, the melting point worked out at 54 °C.

For `CC1(C2CCCC2)Cc2cc(OCCCCCCC(=O)O)c(Cl)c(Cl)c2C1=O` (configuration not stated), the melting point was 107 to 110 °C.

For `O=C(O)CCC(=O)c1ccc(-c2ccc(Cl)s2)cc1`, the melting point lay within 212 to 213 °C.

The compound `CCOC(=O)CN1Cc2c(C)cccc2NC1=O` showed a melting point of 184 to 185 °C.

With `CCC1(C)CN(c2c(F)cc3c(=O)c(C(=O)O)cn(C4CC4)c3c2OC)CCC1N` (configuration not stated), the melting point is 152 to 154 °C.

In turn, `COc1ccc(C(=O)Nc2ccc3ccc(Cl)nc3n2)cc1OC` came in with a melting point of 196 °C.

Compound `COC(=O)C(=O)c1ccc(S(=O)(=O)CCOc2ccc3ccccc3c2)cc1` displayed a melting point of 110 to 111 °C.

For `CC1(C)CC(N)c2cc(OCc3ccccc3)ccc2O1` (configuration not stated), the melting point lay in the range of 86 to 88 °C.

As for `ClCc1cc(I)cc(I)c1I`, the melting point was 97 to 98 °C.

With `CC(=C1SC(=O)NC1=O)c1ccc(OCCOc2c(-c3cc(F)ccc3C)n(C)c3ccccc3c2=O)cc1`, the melting point lay in the range of 192 to 196 °C.

Turning to `O=Cc1cccn1C(=O)c1ccccc1[N+](=O)[O-]`, the melting point lay in the range of 95 to 99 °C.

In the case of `COc1cc(C)c2ccc(N)nc2n1`, the melting point was in the range of 233 to 236 °C.

`COc1ccc(OC2=CCNCC2)cc1` registered a melting point of 45 to 46 °C.

As for `COc1ccc2c3c1OC1C[C@@H](O)C=CC31CCN(C(=O)NC(C)C)C2` (some centres not stated), the melting point is 106 to 108 °C.

Take `COc1ccc2nc3ccc(C#N)cn3c(=O)c2c1`: the melting point lay within 284 to 285 °C.

Compound `COc1cc(Nc2c(C#N)cnc3cc(-c4csc(C5OCCO5)c4)sc23)c(Cl)cc1Cl` gave a melting point of 219 to 221 °C.

For the compound `CCCOc1ccc(/C=C/c2nc3c(c(=O)n(CC)c(=O)n3CC)n2C)cc1`, the melting point was determined as 156 °C.

The compound `CC(=O)Nc1ccc2c(O)c(C(=O)NCc3ccc(Cl)cc3)cnc2c1` had a melting point greater than 250 °C.

As usually defined, the melting point is the temperature, or range, at which the solid turns liquid.
